Measurements as given in PubChem BioAssay AID256 (DTP/NCI, 2004).
Where “and” joins values, the source holds several entries; their conditions need not be identical. Equal entries are not always repeated. Inconclusive results and toxic doses are left out.

System: CD2F1 mice, L1210 leukemia ip, survival T/C
Assay: NCI In Vivo Anticancer Drug Screen. Data for tumor model L1210 Leukemia (intraperitoneal) in CD2F1 (CDF1) mice
Details: higher = longer survival
Method in brief: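 Mice carrying a transplanted tumor received test compound or vehicle alone. The value is the measurement in the treated group divided by that in the vehicle-treated control group.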

## O=NN(CCCl)C(=O)NC1CCCCC1
endpoint: mean survival time, dose: 0.5 mg/kg/injection, schedule: Q03HX008 (oral), vehicle: saline
  T/C: 214 % of control
endpoint: mean survival time, dose: 0.5 mg/kg/injection, schedule: Q03HX024 (oral), vehicle: saline
  T/C: 290 % of control
endpoint: mean survival time, dose: 0.5 mg/kg/injection, schedule: Q03HX040 (oral), vehicle: saline
  T/C: 200 % of control
endpoint: mean survival time, dose: 1.0 mg/kg/injection, schedule: Q01DX001 (ip), vehicle: saline
  T/C: 98 % of control
endpoint: mean survival time, dose: 1.0 mg/kg/injection, schedule: Q01DX005 (ip), vehicle: saline
  T/C: 113 % of control
endpoint: mean survival time, dose: 1.0 mg/kg/injection, schedule: Q01DX009 (ip), vehicle: saline
  T/C: 100 % of control
endpoint: mean survival time, dose: 1.0 mg/kg/injection, schedule: Q03HX024 (oral), vehicle: saline
  T/C: 194 % of control
endpoint: mean survival time, dose: 1.0 mg/kg/injection, schedule: Q03HX040 (oral), vehicle: saline
  T/C: 96 % of control
endpoint: mean survival time, dose: 2.0 mg/kg/injection, schedule: Q03HX008 (oral), vehicle: saline
  T/C: 338 % of control
endpoint: mean survival time, dose: 4.0 mg/kg/injection, schedule: Q01DX001 (ip), vehicle: other
  T/C: 109 % of control
endpoint: mean survival time, dose: 4.0 mg/kg/injection, schedule: Q03HX024 (oral), vehicle: saline
  T/C: 96 % of control
endpoint: mean survival time, dose: 8.0 mg/kg/injection, schedule: Q01DX001 (ip), vehicle: saline
  T/C: 108 % of control
endpoint: mean survival time, dose: 8.0 mg/kg/injection, schedule: Q01DX001 (oral), vehicle: saline
  T/C: 100 % of control
endpoint: mean survival time, dose: 8.0 mg/kg/injection, schedule: Q01DX005 (ip), vehicle: saline
  T/C: 267 % of control
endpoint: mean survival time, dose: 8.0 mg/kg/injection, schedule: Q01DX009 (ip), vehicle: saline
  T/C: 191 % of control
endpoint: mean survival time, dose: 8.0 mg/kg/injection, schedule: Q03HX008 (ip), vehicle: saline
  T/C: 108 % of control
endpoint: mean survival time, dose: 8.0 mg/kg/injection, schedule: Q04DX003 (ip), vehicle: saline
  T/C: 124 % of control
endpoint: mean survival time, dose: 9.0 mg/kg/injection, schedule: Q01DX001 (ip), vehicle: carboxymethylcellulose (CMC)
  T/C: 111 % of control
endpoint: mean survival time, dose: 16.0 mg/kg/injection, schedule: Q01DX001 (ip), vehicle: other
  T/C: 169 % of control
endpoint: mean survival time, dose: 16.0 mg/kg/injection, schedule: Q01DX005 (ip), vehicle: saline
  T/C: 393 % of control
endpoint: mean survival time, dose: 16.0 mg/kg/injection, schedule: Q01DX009 (ip), vehicle: saline
  T/C: 315 % of control
endpoint: mean survival time, dose: 16.0 mg/kg/injection, schedule: Q03HX024 (ip), vehicle: saline
  T/C: 210 % of control
endpoint: mean survival time, dose: 16.0 mg/kg/injection, schedule: Q03HX040 (ip), vehicle: saline
  T/C: 217 % of control
endpoint: mean survival time, dose: 16.0 mg/kg/injection, schedule: Q04DX003 (ip), vehicle: saline + alcohol
  T/C: 158 % of control and 425 % of control
endpoint: mean survival time, dose: 16.0 mg/kg/injection, schedule: Q04DX003 (ip), vehicle: saline
  T/C: 279 % of control
endpoint: mean survival time, dose: 22.0 mg/kg/injection, schedule: Q01DX001 (ip), vehicle: carboxymethylcellulose (CMC)
  T/C: 178 % of control
endpoint: mean survival time, dose: 32.0 mg/kg/injection, schedule: Q01DX001 (ip), vehicle: other
  T/C: 348 % of control
endpoint: mean survival time, dose: 32.0 mg/kg/injection, schedule: Q01DX001 (ip), vehicle: saline
  T/C: 157 % of control
endpoint: mean survival time, dose: 32.0 mg/kg/injection, schedule: Q01DX001 (oral), vehicle: saline
  T/C: 118 % of control
endpoint: mean survival time, dose: 32.0 mg/kg/injection, schedule: Q01DX005 (ip), vehicle: saline
  T/C: 393 % of control
endpoint: mean survival time, dose: 32.0 mg/kg/injection, schedule: Q01DX005 (oral), vehicle: saline
  T/C: 310 % of control
endpoint: mean survival time, dose: 32.0 mg/kg/injection, schedule: Q01DX009 (ip), vehicle: saline
  T/C: 224 % of control
endpoint: mean survival time, dose: 32.0 mg/kg/injection, schedule: Q01DX009 (oral), vehicle: saline
  T/C: 159 % of control
endpoint: mean survival time, dose: 32.0 mg/kg/injection, schedule: Q03HX008 (ip), vehicle: saline
  T/C: 191 % of control
endpoint: mean survival time, dose: 32.0 mg/kg/injection, schedule: Q03HX024 (ip), vehicle: saline
  T/C: 421 % of control
endpoint: mean survival time, dose: 32.0 mg/kg/injection, schedule: Q03HX040 (ip), vehicle: saline
  T/C: 432 % of control
endpoint: mean survival time, dose: 32.0 mg/kg/injection, schedule: Q04DX003 (ip), vehicle: saline + alcohol
  T/C: 515 % of control
endpoint: mean survival time, dose: 32.0 mg/kg/injection, schedule: Q04DX003 (ip), vehicle: saline
  T/C: 406 % of control
endpoint: mean survival time, dose: 32.0 mg/kg/injection, schedule: Q04DX003 (oral), vehicle: saline
  T/C: 267 % of control
endpoint: mean survival time, dose: 33.0 mg/kg/injection, schedule: Q01DX001 (ip), vehicle: carboxymethylcellulose (CMC)
  T/C: 208 % of control
endpoint: mean survival time, dose: 48.0 mg/kg/injection, schedule: Q04DX003 (ip), vehicle: saline + alcohol
  T/C: 82 % of control
endpoint: mean survival time, dose: 50.0 mg/kg/injection, schedule: Q01DX001 (ip), vehicle: carboxymethylcellulose (CMC)
  T/C: 352 % of control
endpoint: mean survival time, dose: 64.0 mg/kg/injection, schedule: Q01DX001 (ip), vehicle: other
  T/C: 208 % of control
endpoint: mean survival time, dose: 64.0 mg/kg/injection, schedule: Q01DX001 (ip), vehicle: saline
  T/C: 411 % of control
endpoint: mean survival time, dose: 64.0 mg/kg/injection, schedule: Q01DX005 (ip), vehicle: saline
  T/C: 98 % of control
endpoint: mean survival time, dose: 64.0 mg/kg/injection, schedule: Q01DX005 (oral), vehicle: saline
  T/C: 107 % of control
endpoint: mean survival time, dose: 64.0 mg/kg/injection, schedule: Q01DX009 (ip), vehicle: saline
  T/C: 120 % of control
endpoint: mean survival time, dose: 64.0 mg/kg/injection, schedule: Q01DX009 (oral), vehicle: saline
  T/C: 95 % of control
endpoint: mean survival time, dose: 64.0 mg/kg/injection, schedule: Q03HX008 (ip), vehicle: saline
  T/C: 437 % of control
endpoint: mean survival time, dose: 64.0 mg/kg/injection, schedule: Q03HX024 (ip), vehicle: saline
  T/C: 330 % of control
endpoint: mean survival time, dose: 64.0 mg/kg/injection, schedule: Q03HX040 (ip), vehicle: saline
  T/C: 259 % of control
endpoint: mean survival time, dose: 64.0 mg/kg/injection, schedule: Q04DX003 (ip), vehicle: saline
  T/C: 209 % of control
endpoint: mean survival time, dose: 75.0 mg/kg/injection, schedule: Q01DX001 (ip), vehicle: carboxymethylcellulose (CMC)
  T/C: 332 % of control
endpoint: mean survival time, dose: 128.0 mg/kg/injection, schedule: Q01DX001 (ip), vehicle: saline
  T/C: 198 % of control
endpoint: mean survival time, dose: 128.0 mg/kg/injection, schedule: Q01DX001 (oral), vehicle: saline
  T/C: 330 % of control
endpoint: mean survival time, dose: 128.0 mg/kg/injection, schedule: Q03HX008 (ip), vehicle: saline
  T/C: 437 % of control
endpoint: mean survival time, dose: 128.0 mg/kg/injection, schedule: Q03HX040 (ip), vehicle: saline
  T/C: 86 % of control
endpoint: mean survival time, dose: 128.0 mg/kg/injection, schedule: Q04DX003 (oral), vehicle: saline
  T/C: 110 % of control
endpoint: mean survival time, dose: 256.0 mg/kg/injection, schedule: Q04DX003 (oral), vehicle: saline
  T/C: 86 % of control
endpoint: median survival time, dose: 1.0 mg/kg/injection, schedule: Q01DX009 (ip), vehicle: Klucel (hydroxypropylcellulose) (HPC)
  T/C: 113 % of control and 106 % of control
endpoint: median survival time, dose: 2.0 mg/kg/injection, schedule: Q01DX009 (ip), vehicle: Klucel (hydroxypropylcellulose) (HPC)
  T/C: 113 % of control
endpoint: median survival time, dose: 4.0 mg/kg/injection, schedule: Q04DX003 (ip), vehicle: saline + alcohol
  T/C: 105 % of control
endpoint: median survival time, dose: 8.0 mg/kg/injection, schedule: Q04DX003 (ip), vehicle: saline + alcohol
  T/C: 98 % of control
endpoint: median survival time, dose: 8.4 mg/kg/injection, schedule: Q01DX001 (ip), vehicle: distilled water + Tween-80 + alcohol
  T/C: 94 % of control
endpoint: median survival time, dose: 14.0 mg/kg/injection, schedule: Q01DX001 (ip), vehicle: distilled water + Tween-80 + alcohol
  T/C: 100 % of control
endpoint: median survival time, dose: 14.0 mg/kg/injection, schedule: Q07DX003 (ip), vehicle: saline + alcohol
  T/C: 157 % of control
endpoint: median survival time, dose: 16.0 mg/kg/injection, schedule: Q04DX003 (ip), vehicle: saline + alcohol
  T/C: 109 % of control
endpoint: median survival time, dose: 20.0 mg/kg/injection, schedule: Q07DX003 (ip), vehicle: saline + alcohol
  T/C: 584 % of control
endpoint: median survival time, dose: 26.0 mg/kg/injection, schedule: Q07DX003 (ip), vehicle: saline + alcohol
  T/C: 669 % of control
endpoint: median survival time, dose: 27.0 mg/kg/injection, schedule: Q01DX001 (ip), vehicle: carboxymethylcellulose (CMC)
  T/C: 184 % of control
endpoint: median survival time, dose: 32.0 mg/kg/injection, schedule: Q04DX003 (ip), vehicle: saline + alcohol
  T/C: 438 % of control
endpoint: median survival time, dose: 33.0 mg/kg/injection, schedule: Q07DX003 (ip), vehicle: saline + alcohol
  T/C: 671 % of control
endpoint: median survival time, dose: 40.0 mg/kg/injection, schedule: Q01DX001 (ip), vehicle: carboxymethylcellulose (CMC)
  T/C: 722 % of control
endpoint: median survival time, dose: 40.0 mg/kg/injection, schedule: Q01DX001 (ip), vehicle: distilled water + Tween-80 + alcohol
  T/C: 154 % of control
endpoint: median survival time, dose: 64.0 mg/kg/injection, schedule: Q01DX009 (ip), vehicle: Klucel (hydroxypropylcellulose) (HPC)
  T/C: 96 % of control and 109 % of control

## O=C1CSCc2c1ccc1ccccc21
endpoint: mean survival time, dose: 100.0 mg/kg/injection, schedule: Q01DX009 (ip), vehicle: saline with Tween-80
  T/C: 98 % of control
endpoint: mean survival time, dose: 200.0 mg/kg/injection, schedule: Q01DX009 (ip), vehicle: saline with Tween-80
  T/C: 95 % of control
endpoint: mean survival time, dose: 400.0 mg/kg/injection, schedule: Q01DX009 (ip), vehicle: saline with Tween-80
  T/C: 96 % of control
